Assay results as given in patent publication US4462992A, “Nitroimidazole radiosensitizers for hypoxic tumor cells and compositions thereof” (priority 1982, dated 1984).
Like-named read-outs stand apart in the source and are kept apart here.

What was measured:
[1] = Pharmacokinetics, localization in tissue in mice bearing B16 melanoma; assay type: in vivo, mouse (C57/BL); settings: for concentration at 0.5 h / concentration at 1 h / Kp at 0.5 h / Kp at 1 h: mouse, ip, 1000 mg/kg; for concentration at 0.5 h / concentration at 1 h: 1 g/kg intraperitoneal
Procedure: The drug solution was made in normal saline at a concentration of 50 mg/ml. The drug solution was injected intraperitoneally at a dose level of 1 g/kg to C57/BL mice bearing 15 day old B16 melanoma tumor. At 30 and 60 minute interval after the drug administration, mice were anesthetized, blood sample was taken directly by heart puncture and tumor and brain tissue were removed. Plasma was separated after centrifugation of the whole blood and extracted with methanol. Brain and tumor tissue were homogenized and also extracted with methanol. The methanol extracts were analyzed by reverse phase high-performance liquid chromatography employing 25% methanol as mobile phase. The peak was detected at 320 nm with a retention time of 2.3 min. The flow rate was 2 ml/min.

[2] = tested on: hypoxic tumor cells; settings: cited from earlier work
[3] = tested on: hypoxic cells (Chinese hamster cells line V-79); experiment: Differential toxicity to hypoxic cells at 4 hours; assay type: cell-based
Procedure: (§1) Asynchronous monolayers of cultures of Chinese hamster cells line V-79 were employed in all experiments. The monolayers were derived from exponentially growing cultures. Methods of culturing and handling have been reported earlier by Cooke et al, Rad. Res. 65, 152 (1976). The plated cultures were rendered hypoxic in sealed dural containers capable of holding seven petri dishes, by purging with nitrogen (oxygen-free grade) for one hour. Irradiation was carried out by using a cobalt-60 source at a dose rate of approximately 240 rad/min according to the procedure described by Agrawal et al Rad. Res. 78:532 (1979). A dose of 1400 rad was given to hypoxic cells in glass petri dishes in the presence of a given drug concentration (2000 cells/dish). Cell survival was estimated from unirradiated toxic hypoxic cells exposed to the same drug concentration. Complete survival curves were obtained for each compound at the radiation doses of 400 to 3000 rad. The Do value was calculated for each compound and the ratio of the Do value for the hypoxic control cells to the Do value of the hypoxic drug treated cells provided the sensitized enhancement ratio of the corresponding agent.
(§2) To determine toxicity in vitro, glass petri dishes containing approximately 200 Chinese hamster cells/dish were exposed to a range of concentrations of each drug for 2 hours and/or 4 hours at 37° C. Drug concentrations between 10 μM and 0.5 mM were employed initially.

[4] = In vitro cytotoxicity in hypoxic cells (% survival); assay type: cell-based, Chinese hamster; settings: hamster, v-79 cells; for viability at 2 h, 100 µM / viability at 4 h, 100 µM: 0.1 mM; for viability at 2 h, 50 µM / viability at 4 h, 50 µM: 0.05 mM; for viability at 2 h, 250 µM / viability at 4 h, 250 µM: 0.25 mM
Procedure: as §1
(§3) Cultures were incubated for 6 days at 37° C. in an atmosphere of 5% CO2. The resulting colonies were fixed in absolute ethanol and stained with methylene blue and counted.
as §2

[5] = In vitro cytotoxicity in oxic cells (% survival); assay type: cell-based, Chinese hamster; settings: hamster, v-79 cells, oxic; for viability at 2 h, 1000 µM: 1.0 mM; for viability at 2 h, 5000 µM: 5.0 mM
Procedure: as §1, §3, §2

[6] = tested on: Chinese hamster cells line V-79; experiment: Radiosensitization (enhancement ratio, cobalt-60 irradiation of hypoxic cells); assay type: cell-based
Procedure: as §1, §3

[7] = tested on: Chinese hamster cells line V-79 (oxic); experiment: In vitro cytotoxicity in oxic cells (% survival); assay type: cell-based; settings: 2 hours
Procedure: as §1, §3, §2

[8] = 2 hours, read-out: In vitro cytoxicity in hypoxic cells (% survival at 2 hours)
[9] = 4 hours, read-out: In vitro cytoxicity in hypoxic cells (% survival at 4 hours)
[10] = 2 hours, 0.1 mM, read-out: In vitro cytoxicity in oxic cells (% survival at 2 hours)
[11] = 2 hours, 0.5 mM, read-out: In vitro cytoxicity in oxic cells (% survival at 2 hours)
[12] = 2 hours, read-out: In vitro cytoxicity in oxic cells (% survival at 2 hours)
[13] = 4 hours, 0.01 mM, read-out: In vitro cytoxicity in hypoxic cells (% survival at 4 hours)

## O=[N+]([O-])c1nccn1[C@@H]1C=C[C@H](O)[C@@H](CO)O1 [1-(2',3'-didehydro-2',3'-dideoxy-α-D-erythro-hexopyranosyl)-2-nitroimidazole]
[1]; 30 and 60 min
  tumor concentration relative to brain (Tumor/Brain ratio): approximately 3 fold
[1]; 30 to 60 min
  Ratio of Brain/Plasma, change with time: increased with time
  Ratio of Tumor/Plasma, change with time: increased with time
[1]; 30 min
  Ratio of Tumor/Brain: 2.87
[1]; 60 min
  Ratio of Tumor/Brain: 2.88
[1]; b16 melanoma tumor, tumor, 30 min, read-out: (B16 melanoma)
  concentration at 0.5 h: 293000 ng/g
[1]; b16 melanoma tumor, tumor, 60 min, read-out: (B16 melanoma)
  concentration at 1 h: 346000 ng/g
[1]; brain, 30 min, read-out: Brain
  concentration at 0.5 h: 102000 ng/g
[1]; brain, 60 min, read-out: Brain
  concentration at 1 h: 120000 ng/g
[1]; brain/plasma, 30 min, read-out: Ratio of Brain/Plasma
  Kp at 0.5 h: 0.097
[1]; brain/plasma, 60 min, read-out: Ratio of Brain/Plasma
  Kp at 1 h: 0.18
[1]; plasma, 30 min, read-out: Plasma
  concentration at 0.5 h: 1050 µg/mL
[1]; plasma, 60 min, read-out: Plasma
  concentration at 1 h: 648 µg/mL
[1]; tumor/plasma, 30 min, read-out: Ratio of Tumor/plasma
  Kp at 0.5 h: 0.278
[1]; tumor/plasma, 60 min, read-out: Ratio of Tumor/plasma
  Kp at 1 h: 0.534

## O=c1[nH]c(=O)n([C@H]2C[C@H](O)[C@@H](CO)O2)cc1Br [5-bromodeoxyuridine]
[2]
  selectivity for tumor cells: poor selectivity

## O=c1[nH]c(=O)n([C@H]2C[C@H](O)[C@@H](CO)O2)cc1F [5-flourodeoxyuridine]
[2]
  selectivity for tumor cells: poor selectivity

## CC(=O)OC[C@H]1O[C@H](n2ccnc2[N+](=O)[O-])C=C[C@@H]1OC(C)=O [B, 1(4',6di-O--acetyl2',3didehydro-2',3dideoxy-D-erythro-hexopyranosyl)-2-ni roimidazole]
[3]
  Differential toxicity to hypoxic cells at 4 hours: Yes
[4]; [8]
  viability at 2 h, 100 µM: 90.9%
[4]; 2 hours, 0.5 mM, read-out: In vitro cytoxicity in hypoxic cells (% survival at 2 hours)
  viability at 2 h, 500 µM: 100%
[4]; [9]
  viability at 4 h, 100 µM: 96%
[4]; 4 hours, 0.5 mM, read-out: In vitro cytoxicity in hypoxic cells (% survival at 4 hours)
  viability at 4 h, 500 µM: 60.3%
[5]; 2 hours, 0.01 mM, read-out: In vitro cytoxicity in oxic cells (% survival at 2 hours)
  viability at 2 h, 10 µM: 106%
[5]; 2 hours, 0.05 mM, read-out: In vitro cytoxicity in oxic cells (% survival at 2 hours)
  viability at 2 h, 50 µM: 100%
[5]; [10]
  viability at 2 h, 100 µM: 103%
[5]; [11]
  viability at 2 h, 500 µM: 100%
[5]; 4 hours, 0.01 mM, read-out: In vitro cytoxicity in oxic cells (% survival at 4 hours)
  viability at 4 h, 10 µM: 100%
[5]; 4 hours, 0.05 mM, read-out: In vitro cytoxicity in oxic cells (% survival at 4 hours)
  viability at 4 h, 50 µM: 100%
[5]; 4 hours, 0.1 mM, read-out: In vitro cytoxicity in oxic cells (% survival at 4 hours)
  viability at 4 h, 100 µM: 101%
[5]; 4 hours, 0.5 mM, read-out: In vitro cytoxicity in oxic cells (% survival at 4 hours)
  viability at 4 h, 500 µM: 102%
[6]; 0.5 mM
  Radiosensitization (enhancement ratio in Chinese hamster cells): 2.0

## O=[N+]([O-])c1nccn1C1O[C@H](CO)[C@@H](O)[C@@H]1O (stereo partly drawn) [D, 1(D-Arabinofuranosyl)-2-nitroimidazole]
[5]; [10]
  viability at 2 h, 100 µM: 105%
[5]; [11]
  viability at 2 h, 500 µM: 104%
[5]; [12]
  viability at 2 h, 1000 µM: 99%
  viability at 2 h, 5000 µM: 116%
[6]; 1.0 mM
  Radiosensitization (enhancement ratio in Chinese hamster cells): 1.7

## O=C(OC[C@H]1O[C@H](n2ccnc2[N+](=O)[O-])[C@@H](OC(=O)c2ccccc2)[C@@H]1OC(=O)c1ccccc1)c1ccccc1 [E, 1(2',3',5tri-O--benzoylD-arabinofuranosyl)-2-nitroimidazole]
[4]; [8]
  viability at 2 h, 50 µM: 84%
  viability at 2 h, 250 µM: 12%
[4]; [13]
  viability at 4 h, 10 µM: 80%
[4]; [9]
  viability at 4 h, 50 µM: 76%
  viability at 4 h, 100 µM: 46%
  viability at 4 h, 250 µM: 2.6%
[6]; 0.05 (mM not given)
  Radiosensitization (enhancement ratio in Chinese hamster cells): 1.0

## O=C(OC[C@H]1O[C@@H](n2ccnc2[N+](=O)[O-])[C@@H](OC(=O)c2ccccc2)[C@@H]1OC(=O)c1ccccc1)c1ccccc1 [F, 1(2',3',5tri-O--benzoylD-arabinofuranosyl)-2-nitroimidazole]
[4]; 2 hours, 0.01 mM, read-out: In vitro cytoxicity in hypoxic cells (% survival at 2 hours)
  viability at 2 h, 10 µM: 102%
[4]; [8]
  viability at 2 h, 50 µM: 102%
  viability at 2 h, 100 µM: 97%
  viability at 2 h, 250 µM: 105%
[4]; [13]
  viability at 4 h, 10 µM: 103%
[4]; [9]
  viability at 4 h, 50 µM: 104%
  viability at 4 h, 100 µM: 89%
  viability at 4 h, 250 µM: 73%
[6]; 0.1 mM
  Radiosensitization (enhancement ratio in Chinese hamster cells): 1.1

## O=[N+]([O-])c1nccn1C1C[C@H](O)[C@@H](CO)O1 (stereo partly drawn) [G, 1(2-deoxy-D-erythro-pentofuranosyl)-2-nitroimidazole]
[5]; [10]
  viability at 2 h, 100 µM: 95.3%
[5]; [11]
  viability at 2 h, 500 µM: 88.9%
[5]; [12]
  viability at 2 h, 1000 µM: 93%
  viability at 2 h, 5000 µM: 82.4%
[6]; 1.0 mM
  Radiosensitization (enhancement ratio in Chinese hamster cells): 1.9

## O=[N+]([O-])c1nccn1C1C[C@H](O)[C@@H](CO)O1 (stereo partly drawn) [H, 1(2-deoxy-D-erythro-pentofuranosyl)-2-nitroimidazole]
[7]; 0.1 mM
  In vitro cytoxicity in oxic cells (% survival at 2 hours): 95.3%
[7]; 0.5 mM, 120 min, 500 µM
  In vitro cytoxicity in oxic cells (% survival at 2 hours): 94.2%
[7]; 1.0 mM, 120 min, 1000 µM
  In vitro cytoxicity in oxic cells (% survival at 2 hours): 98.2%
[7]; 5.0 mM, 120 min, 5000 µM
  In vitro cytoxicity in oxic cells (% survival at 2 hours): 81.3%
[6]; 1.0 mM
  Radiosensitization (enhancement ratio in Chinese hamster cells): 1.9

## O=[N+]([O-])c1nccn1C1CCCO1 (stereo not shown) [I, 1-(Tetrahydro-2-furanyl)-2-nitroimidazole]
[5]; [10]
  viability at 2 h, 100 µM: 98.8%
[5]; [11]
  viability at 2 h, 500 µM: 101%
[5]; [12]
  viability at 2 h, 1000 µM: 87.1%
  viability at 2 h, 5000 µM: 79.5%
[6]; 1.0 mM
  Radiosensitization (enhancement ratio in Chinese hamster cells): 1.6

## O=[N+]([O-])c1nccn1C1CCCCO1 (stereo not shown) [J, 1-(Tetrahydro-2-pyranyl)-2-nitroimidazole]
[5]; [10]
  viability at 2 h, 100 µM: 106%
[5]; [11]
  viability at 2 h, 500 µM: 101%
[5]; [12]
  viability at 2 h, 1000 µM: 105%
  viability at 2 h, 5000 µM: 94.9%
[6]; 1.0 mM
  Radiosensitization (enhancement ratio in Chinese hamster cells): 1.7

## O=[N+]([O-])c1nccn1C1CCCC1O (stereo not shown) [K, 1-(2-Hydroxycyclopentyl)-2-nitroimidazole]
[5]; [10]
  viability at 2 h, 100 µM: 112%
[5]; [11]
  viability at 2 h, 500 µM: 110%
[5]; [12]
  viability at 2 h, 1000 µM: 107%
  viability at 2 h, 5000 µM: 94.7%
[6]; 1.0 mM
  Radiosensitization (enhancement ratio in Chinese hamster cells): 2.0

## O=[N+]([O-])c1nccn1C1CCCCC1O (stereo not shown) [L, 1-(2-Hydroxycyclohexyl)-2-nitroimidazole]
[5]; [10]
  viability at 2 h, 100 µM: 98.2%
[5]; [11]
  viability at 2 h, 500 µM: 90.3%
[5]; [12]
  viability at 2 h, 1000 µM: 86%
[6]; 1.0 mM
  Radiosensitization (enhancement ratio in Chinese hamster cells): 2.0

## O=[N+]([O-])c1nccn1COCCO [M, 1-[(2-hydroxyethoxy)methyl]-2-nitroimidazole]
[5]; [10]
  viability at 2 h, 100 µM: 99.5%
[5]; [11]
  viability at 2 h, 500 µM: 106%
[5]; [12]
  viability at 2 h, 1000 µM: 104%
[6]; 1.0 mM
  Radiosensitization (enhancement ratio in Chinese hamster cells): 2.1
